Tests used:
HBV in 2.2.15 cells = experiment: 2.2.15 cells: viral product in cell lysates quantified via quantitative real time PCR; assay type: cell-based, hepatitis B virus (HBV); conditions: Hepatitis B virus, 120 h, day 5 post treatment, 50% reduction of viral product vs no drug controls, readout (qPCR, HBsAg or HBeAg) not specified for the column
Method: 2.2.15 cells are passaged upon attaining confluency in DMEM/F12 media in the presence of 10% FBS, Penn/Strep, and 250 ug/mL G418. Novel compounds are 5 fold serially diluted in DMSO and added to 96 well plates containing 35,000 cells/well at a 1:200 dilution so that the final concentration of DMSO is 0.5%. On day 5, post treatment cell lysates and supernatants are harvested for analysis.
Cells are lysed using Agilent Sidestep Lysis buffer, diluted 1:100 and quantified via quantitative real time PCR. Commercially available ELISA kits are used to quantitate the viral proteins HBsAg (Alpco) or HBeAg (US Biological) by following the manufacturer's recommended protocol after diluting samples to match the linear range of their respective assays. Irrespective of readout, compound concentrations that reduce viral product accumulation in the cell lysates or supernatants by 50% relative to no drug controls (EC50) are reported; EC50 ranges are as follows: A<0.1 μM; B 0.2-1 μM; C>1 μM.

[1] = Compound induced cellular toxicity in HepG2 cells, ATPlite 1Step; assay type: cell-based; conditions: human, three days exposure, 50% reduction of total ATP vs no drug controls
Method: At day 3, post seeding cells are treated with ATPlite 1Step according to the manufacturer's instructions.

Structure (SMILES): CC(C)(C)[C@@H]1Cn2nc(-c3cnco3)cc2-c2cc(=O)c(C(=O)O)cn21 [Example 7, (R)-6-(tert-butyl)-2-(oxazol-5-yl)-10-oxo-5,6-dihydro-10H-pyrazolo[1,5-a]pyrido[2,2-c]pyrazine-12-carboxylic acid]
- EC50 (HBV in 2.2.15 cells): 200 to 1000 nM
- CC50 at 3 days [1]: > 25 µM

Structure (SMILES): COc1cccc(C(N)=O)c1-c1cc2n(n1)C[C@@H](C(C)(C)C)n1cc(C(=O)O)c(=O)cc1-2 [Example 52, (R)-6-(tert-butyl)-2-(2-carbamoyl-6-methoxyphenyl)-10-oxo-5,6-dihydro-10H-pyrazolo[1,5-a]pyrido[2,2-c]pyrazine-12-carboxylic acid]
- EC50 (HBV in 2.2.15 cells): 200 to 1000 nM
- CC50 at 3 days [1]: > 25 µM

Structure (SMILES): CC(C)(C)[C@@H]1Cn2nc(-c3cccc(F)c3)cc2-c2cc(=O)c(C(=O)O)cn21 [Example 2, (R)-6-(tert-butyl)-2-(3-fluorophenyl)-10-oxo-5,6-dihydro-10H-pyrazolo[1,5-a]pyrido[2,2-c]pyrazine-12-carboxylic acid]
- EC50 (HBV in 2.2.15 cells): < 100 nM
- CC50 at 3 days [1]: > 25 µM

Structure (SMILES): COc1cccc(-c2nn3c(c2-c2cccc(OC)c2)-c2cc(=O)c(C(=O)O)cn2[C@H](C(C)(C)C)C3)c1 [Example 97, (R)-6-(tert-butyl)-1,2-bis(3-methoxyphenyl)-10-oxo-5,6-dihydro-10H-pyrazolo[1,5-a]pyrido[2,1-c]pyrazine-9-carboxylic acid]
- EC50 (HBV in 2.2.15 cells): < 100 nM
- CC50 at 3 days [1]: > 25 µM

Structure (SMILES): COc1cccc(-c2cc3n(n2)C[C@@H](C(C)(C)C)n2cc(C(=O)O)c(=O)cc2-3)c1OC [Example 23, (R)-6-(tert-butyl)-2-(2,3-dimethoxyphenyl)-10-oxo-5,6-dihydro-10H-pyrazolo[1,5-a]pyrido[2,2-c]pyrazine-12-carboxylic acid]
- EC50 (HBV in 2.2.15 cells): 200 to 1000 nM
- CC50 at 3 days [1]: > 25 µM

Structure (SMILES): CC(C)(C)[C@@H]1Cn2nc(-c3ccncc3F)cc2-c2cc(=O)c(C(=O)O)cn21 [Example 41, (R)-6-(tert-butyl)-2-(3-fluoropyridin-4-yl)-10-oxo-5,6-dihydro-10H-pyrazolo[1,5-a]pyrido[2,2-c]pyrazine-12-carboxylic acid]
- EC50 (HBV in 2.2.15 cells): < 100 nM
- CC50 at 3 days [1]: > 25 µM

Structure (SMILES): COc1ccc(OC(F)(F)F)c(-c2cc3n(n2)C[C@@H](C(C)(C)C)n2cc(C(=O)O)c(=O)cc2-3)c1 [Example 34, (R)-6-(tert-butyl)-2-(5-methoxy-2-(trifluoromethoxy)phenyl)-10-oxo-5,6-dihydro-10H-pyrazolo[1,5-a]pyrido[2,2-c]pyrazine-12-carboxylic acid]
- EC50 (HBV in 2.2.15 cells): < 100 nM
- CC50 at 3 days [1]: > 25 µM

Structure (SMILES): CC(C)(C)[C@@H]1Cn2nc(C3CC3)c(-c3ccc(F)c(F)c3)c2-c2cc(=O)c(C(=O)O)cn21 [Example 151, (R)-6-(tert-butyl)-2-cyclopropyl-1-(3,4-difluorophenyl)-10-oxo-5,6-dihydro-10H-pyrazolo[1,5-a]pyrido[2,1-c]pyrazine-9-carboxylic acid]
- EC50 (HBV in 2.2.15 cells): < 100 nM
- CC50 at 3 days [1]: > 25 µM

Structure (SMILES): CC(C)(C)[C@@H]1Cn2nc(C3CC3)c(-c3ccc(F)cc3)c2-c2cc(=O)c(C(=O)O)cn21 [Example 146, (R)-6-(tert-butyl)-2-cyclopropyl-1-(4-fluorophenyl)-10-oxo-5,6-dihydro-10H-pyrazolo[1,5-a]pyrido[2,1-c]pyrazine-9-carboxylic acid]
- EC50 (HBV in 2.2.15 cells): < 100 nM
- CC50 at 3 days [1]: > 25 µM

Structure (SMILES): CC(C)(C)[C@@H]1Cn2nc(-c3ccc(F)c(F)c3F)cc2-c2cc(=O)c(C(=O)O)cn21 [Example 44, (R)-6-(tert-butyl)-10-oxo-2-(2,3,4-trifluorophenyl)-5,6-dihydro-10H-pyrazolo[1,5-a]pyrido[2,2-c]pyrazine-12-carboxylic acid]
- EC50 (HBV in 2.2.15 cells): < 100 nM
- CC50 at 3 days [1]: > 25 µM

Structure (SMILES): Cc1cccc(-c2c(C3CC3)nn3c2-c2cc(=O)c(C(=O)O)cn2[C@H](C(C)(C)C)C3)c1 [Example 153, (R)-6-(tert-butyl)-2-cyclopropyl-10-oxo-1-(m-tolyl)-5,6-dihydro-10H-pyrazolo[1,5-a]pyrido[2,1-c]pyrazine-9-carboxylic acid]
- EC50 (HBV in 2.2.15 cells): < 100 nM
- CC50 at 3 days [1]: 10 to 25 µM

Structure (SMILES): Cc1ccc(-c2cc3n(n2)C[C@@H](C(C)(C)C)n2cc(C(=O)O)c(=O)cc2-3)cc1 [Example 20, (R)-6-(tert-butyl)-10-oxo-2-(p-tolyl)-5,6-dihydro-10H-pyrazolo[1,5-a]pyrido[2,2-c]pyrazine-12-carboxylic acid]
- EC50 (HBV in 2.2.15 cells): < 100 nM
- CC50 at 3 days [1]: > 25 µM

Structure (SMILES): O=C(O)c1cn2c(cc1=O)-c1c(-c3cccc(F)c3)c(-c3cccc(F)c3)nn1C[C@H]2C1COC1 [Example 209, (R)-1,2-bis(3-fluorophenyl)-6-(oxetan-3-yl)-10-oxo-5,6-dihydro-10H-pyrazolo[1,5-a]pyrido[2,1-c]pyrazine-9-carboxylic acid]
- EC50 (HBV in 2.2.15 cells): < 100 nM
- CC50 at 3 days [1]: > 25 µM

Structure (SMILES): CC(C)(C)[C@@H]1Cn2nc(-c3ccccc3OC(F)F)cc2-c2cc(=O)c(C(=O)O)cn21 [Example 68, (R)-6-(tert-butyl)-2-(2-(difluoromethoxy)phenyl)-10-oxo-5,6-dihydro-10H-pyrazolo[1,5-a]pyrido[2,2-c]pyrazine-12-carboxylic acid]
- EC50 (HBV in 2.2.15 cells): < 100 nM
- CC50 at 3 days [1]: > 25 µM

Structure (SMILES): CC(C)(C)[C@@H]1Cn2nc(-c3cccc4c3OC(F)(F)O4)cc2-c2cc(=O)c(C(=O)O)cn21 [Example 21, (R)-6-(tert-butyl)-2-(2,2-difluorobenzo[d][1,3]dioxol-4-yl)-10-oxo-5,6-dihydro-10H-pyrazolo[1,5-a]pyrido[2,2-c]pyrazine-12-carboxylic acid]
- EC50 (HBV in 2.2.15 cells): < 100 nM
- CC50 at 3 days [1]: > 25 µM

Structure (SMILES): Cc1cccc(-c2cnn3c2-c2cc(=O)c(C(=O)O)cn2[C@H](C(C)(C)C)C3)c1 [Example 125, (R)-6-(tert-butyl)-10-oxo-1-(m-tolyl)-5,6-dihydro-10H-pyrazolo[1,5-a]pyrido[2,1-c]pyrazine-9-carboxylic acid]
- EC50 (HBV in 2.2.15 cells): < 100 nM
- CC50 at 3 days [1]: > 25 µM

Structure (SMILES): CC(C)(C)[C@@H]1Cn2nc(-c3c(F)ccc4c3OCO4)cc2-c2cc(=O)c(C(=O)O)cn21 [Example 54, (R)-6-(tert-butyl)-2-(5-fluorobenzo[d][1,3]dioxol-4-yl)-10-oxo-5,6-dihydro-10H-pyrazolo[1,5-a]pyrido[2,2-c]pyrazine-12-carboxylic acid]
- EC50 (HBV in 2.2.15 cells): < 100 nM
- CC50 at 3 days [1]: > 25 µM

Structure (SMILES): Cc1cccc(C)c1-c1cc2n(n1)C[C@@H](C(C)(C)C)n1cc(C(=O)O)c(=O)cc1-2 [Example 62, (R)-6-(tert-butyl)-2-(2,6-dimethylphenyl)-10-oxo-5,6-dihydro-10H-pyrazolo[1,5-a]pyrido[2,2-c]pyrazine-12-carboxylic acid]
- EC50 (HBV in 2.2.15 cells): 200 to 1000 nM
- CC50 at 3 days [1]: > 25 µM

Structure (SMILES): CC(C)(C)[C@@H]1Cn2nc(C3CC3)c(-c3cccc(F)c3)c2-c2cc(=O)c(-c3ncn[nH]3)cn21 [Example 197, (R)-6-(tert-butyl)-2-cyclopropyl-1-(3-fluorophenyl)-9-(1H-1,2,4-triazol-5-yl)-5,6-dihydro-10H-pyrazolo[1,5-a]pyrido[2,1-c]pyrazin-10-one]
- EC50 (HBV in 2.2.15 cells): < 100 nM
- CC50 at 3 days [1]: > 25 µM

Structure (SMILES): CC(C)(C)[C@@H]1Cn2ncc(-c3c(F)ccc4c3OCO4)c2-c2cc(=O)c(C(=O)O)cn21 [Example 123, (R)-6-(tert-butyl)-1-(5-fluorobenzo[d][1,3]dioxol-4-yl)-10-oxo-5,6-dihydro-10H-pyrazolo[1,5-a]pyrido[2,1-c]pyrazine-9-carboxylic acid]
- EC50 (HBV in 2.2.15 cells): < 100 nM
- CC50 at 3 days [1]: > 25 µM

Structure (SMILES): CC(C)(C)[C@@H]1Cn2ncc(Cl)c2-c2cc(=O)c(C(=O)O)cn21 [Example 99, (R)-6-(tert-butyl)-1-chloro-10-oxo-5,6-dihydro-10H-pyrazolo[1,5-a]pyrido[2,1-c]pyrazine-9-carboxylic acid]
- EC50 (HBV in 2.2.15 cells): 200 to 1000 nM

Structure (SMILES): O=C(O)c1cn2c(cc1=O)-c1c(-c3ccccc3F)c(-c3ccccc3F)nn1CC2 [Example 202, 1,2-bis(2-fluorophenyl)-10-oxo-5,6-dihydro-10H-pyrazolo[1,5-a]pyrido[2,1-c]pyrazine-9-carboxylic acid]
- EC50 (HBV in 2.2.15 cells): < 100 nM

Structure (SMILES): CC(C)[C@@H]1Cn2nc(C3CC3)c(-c3cn[nH]c3)c2-c2cc(=O)c(C(=O)O)cn21 [Example 137, (R)-2-cyclopropyl-6-isopropyl-10-oxo-1-(1H-pyrazol-4-yl)-5,6-dihydro-10H-pyrazolo[1,5-a]pyrido[2,1-c]pyrazine-9-carboxylic acid]
- EC50 (HBV in 2.2.15 cells): 200 to 1000 nM

Structure (SMILES): CC(C)[C@@H]1Cn2nc(-c3cccc(O)c3)c(-c3cccc(O)c3)c2-c2cc(=O)c(C(=O)O)cn21 [Example 178, (R)-1,2-bis(3-hydroxyphenyl)-6-isopropyl-10-oxo-5,6-dihydro-10H-pyrazolo[1,5-a]pyrido[2,1-c]pyrazine-9-carboxylic acid]
- EC50 (HBV in 2.2.15 cells): < 100 nM

Structure (SMILES): CC(C)[C@@H]1Cn2nc(-c3ccncc3)c(-c3ccncc3)c2-c2c(F)c(=O)c(C(=O)O)cn21 [Example 184, (R)-11-fluoro-6-isopropyl-10-oxo-1,2-di(pyridin-4-yl)-5,6-dihydro-10H-pyrazolo[1,5-a]pyrido[2,1-c]pyrazine-9-carboxylic acid]
- EC50 (HBV in 2.2.15 cells): 200 to 1000 nM

Structure (SMILES): CC(C)(C)[C@@H]1Cn2ncc(-c3cncs3)c2-c2cc(=O)c(C(=O)O)cn21 [Example 106, (R)-6-(tert-butyl)-10-oxo-1-(thiazol-5-yl)-5,6-dihydro-10H-pyrazolo[1,5-a]pyrido[2,1-c]pyrazine-9-carboxylic acid]
- EC50 (HBV in 2.2.15 cells): < 100 nM

— patent publication US12264159B2, “Functionalized heterocycles as antiviral agents” (Enanta Pharmaceuticals, Inc., priority 2018, dated 2025)
